Where a name gives a salt, the structure may show the parent alone.
What was measured:
[1] = molecular target: T1, glucose enzyme electrode (glucose oxidase) (Aspergillus niger, UniProt P13006); assay: steady-state current response of the 1,1'-dimethylferrocene/glucose oxidase enzyme electrode (interfering substances, KM'); conditions: for interference to the electrodes response to glucose: added at normal blood concentration
T1 construct: purchased Boehringer Mannheim

[2] = dc cyclic voltammetry of ferrocene derivatives (redox potential); format: physicochemical; conditions: for Eo: vs a standard calomel electrode, phosphate buffer at pH 7.0
[3] = molecular target: T2, glucose oxidase (Aspergillus niger, UniProt P13006); format: biochemical; conditions: pH 7
[4] = molecular target: T2, glucose oxidase; assay: substrate kinetics of glucose oxidase (relative rate, Km); format: biochemical; conditions: substrates for glucose oxidase; β-D-glucose 100
[5] = spectrophotometric measurement (E, cm^-1 M^-1); format: physicochemical
Procedure: All optical spectra were recorded with a Pye-Unicam SP8 200 spectrophotometer with the sample and reference solutions in matched quartz micro-cuvettes of path length 1 cm.

[6] = vs NHE; cited from earlier work
[7] = molecular target: T2, glucose oxidase; conditions: non-immobilized enzyme; cited from earlier work
[8] = molecular target: T2, glucose oxidase; conditions: cited from earlier work

T2 sequence (P13006 23-605): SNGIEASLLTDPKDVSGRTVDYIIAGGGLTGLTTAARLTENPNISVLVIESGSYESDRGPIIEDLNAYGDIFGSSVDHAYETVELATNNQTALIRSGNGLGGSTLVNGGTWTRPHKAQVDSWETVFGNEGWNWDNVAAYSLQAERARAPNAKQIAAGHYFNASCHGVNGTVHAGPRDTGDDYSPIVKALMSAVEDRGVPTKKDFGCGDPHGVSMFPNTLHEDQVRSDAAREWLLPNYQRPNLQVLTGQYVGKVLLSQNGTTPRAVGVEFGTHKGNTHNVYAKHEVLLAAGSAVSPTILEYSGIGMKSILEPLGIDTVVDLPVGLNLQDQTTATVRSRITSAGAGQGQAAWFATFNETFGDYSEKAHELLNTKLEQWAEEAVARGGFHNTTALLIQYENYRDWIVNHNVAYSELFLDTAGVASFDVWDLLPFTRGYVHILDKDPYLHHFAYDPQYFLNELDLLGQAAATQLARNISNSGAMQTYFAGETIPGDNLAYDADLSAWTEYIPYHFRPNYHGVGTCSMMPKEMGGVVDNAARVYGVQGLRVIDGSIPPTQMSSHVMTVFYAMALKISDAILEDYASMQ
T1 sequence (P13006 23-605 limits assumed): as the sequence (P13006 23-605) above

OC1OC[C@@H](O)[C@H](O)[C@H]1O (stereo partly drawn) [D-xylose]
interference to the electrodes response to glucose ([1]; 8 mM glucose): did not cause any observable interference

O=CO [sodium formate]
interference to the electrodes response to glucose ([1]; 8 mM glucose): did not cause any observable interference

OC[C@H]1O[C@H](O)[C@@H](O)[C@@H](O)[C@@H]1O [α-mannose]
interference to the electrodes response to glucose ([1]; 8 mM glucose): did not cause any observable interference

1,1'-dimethylferrocene [1,1'-dimethyl-]
Eo [2]: 100 mV

Cl.N[C@@H](CS)C(=O)O [L-cysteine HCl]
interference to the electrodes response to glucose ([1]; 8 mM glucose): did not cause any observable interference

vinyl ferrocene [vinyl-]
Eo/mV vs SCE ([2]; pH 7): 250 mV | Rates of glucose oxidase oxidation [3]: 18

OC[C@H]1OC(O)[C@@H](O)[C@@H](O)[C@@H]1O (stereo partly drawn) [D-mannose]
Relative Rate [4]: 1

Cl[c-]1cccc1.[Fe+2].c1cc[cH-]c1 [chloro-]
Eo [2]: 345 mV

OC[C@H]1O[C@H](O)[C@H](O)[C@@H](O)[C@H]1O [α-galactose]
interference to the electrodes response to glucose ([1]; 8 mM glucose): did not cause any observable interference

OC[c-]1cccc1.OC[c-]1cccc1.[Fe+2] [1,1'bis(hydroxymethyl)-]
Eo [2]: 224 mV | E [5]: 385 cm⁻¹ M⁻¹

1,1'-ferrocene dicarboxylic acid [1,1'-dicarboxylic acid]
Eo' ([2]; Example 4, procedure of Example 3, saturated calomel reference): +420 mV | Eo [2]: 385 mV

[Fe+2].c1cc[cH-]c1.c1cc[cH-]c1 [ferrocene]
Eo [2]: 165 mV | E [5]: 335 cm⁻¹ M⁻¹ | redox potential [6]: +422 mV

O=C1O[C@H]([C@@H](O)CO)C(O)=C1O [L-ascorbate]
mean increase in current ([1]; 8 mM glucose, final concentration of 0.13 mM): ca. 4.0%

N[C@@H](CCC(=O)N[C@@H](CS)C(=O)NCC(=O)O)C(=O)O [reduced glutathione]
interference to the electrodes response to glucose ([1]; 8 mM glucose): did not cause any observable interference

OC[C@H]1OC(O)[C@H](O)[C@@H](O)[C@@H]1O (some centres unmarked) [Glucose]
Km ([1]; glucose oxidase immobilized on the prototype ferrocene-based electrodes, kinetically-controlled, read-out: apparent Michaelis-Menten constant KM'): 30 to 40 mM | Km [7]: 3 mM

OC[C@H]1O[C@H](O)[C@H](O)[C@@H](O)[C@@H]1O [α-D-glucose]
Relative Rate [4]: 0.6

O=O [molecular oxygen]
ks, rate of reaction of the natural electron acceptor with glucose oxidase [8]: 10^6 M^-1 S^-1

OC[C@H]1O[C@@H](O)[C@H](O)[C@@H](O)[C@@H]1O [β-D-glucose]
Relative Rate [4]: 100

OC[C@H]1OC(O)C[C@@H](O)[C@@H]1O (stereo partly drawn) [2-deoxy-D-glucose]
Relative Rate [4]: 25

6-methyl-D-glucose
Relative Rate [4]: 2
